Reference: patent publication US20250296938A1, “Compounds that Interact with the Ras Superfamily for the Treatment of Cancers, Inflammatory Diseases, Rasopathies, and Fibrotic Disease” (SHY Therapeutics, LLC, priority 2018, published 2025)
Values belong to the molecule of their own block, whether it stands above or below them.

Columns and labels:
[1] = system: GTP-bound RAS; assay: Cell-based Ras-GTP pulldown assay, MIA PaCa-2; details: Homo sapiens
Experimental: (§1) Cell lines: Human NSCLC cells NCI-H1975, and tumor-derived pancreatic cancer cell lines Panc-1, and MIA-PaCa-2, were all purchased from American Type Culture Collection and grown in complete RPMI medium (NCI-H1975) or DMEM-High Glucose (Panc1 and MIA-PaCa-2), supplemented with penicillin (100 U/mL), streptomycin (100 μg/mL), and 10% heat-inactivated FBS at 37° C. in a humidified incubator with 5% CO2.
(§2) Method: Cells were plated at 2·10^6 cells/well density in a 6-well plate, allowed 3 hours to adhere to the plate, then starved in the appropriate medium in the presence of 0.5% FBS overnight. The small molecules to be tested were added to the cells in the final concentration of 10 μM in the presence of 0.3% DMSO for 6 hours incubation at 37° C. For IC50 value determination, serial dilutions of compounds were added to cells under the same conditions. Next, cells were stimulated with 5 ng/mL EGF for 5 minutes, rinsed with ice-cold PBS and then lysed with 500 μL of lysis/binding/wash buffer (25 mM Tris-HCl, pH 7.2, 150 mM NaCl, 5 mM MgCl2, 5% glycerol, 1% NP40) from Active Ras Detection kit (Cell signaling Technology, #8821) supplemented with Halt™ Protease & Phosphatase Inhibitor Cocktail (Thermo Scientific). To account for significant differences in cell number due to the treatment, a small sample of lysate was saved for protein quantification and the rest of the lysate was snap frozen. Protein concentration was assessed by BCA protein assay (Thermo Scientific). To ensure that equal amount of protein undergoes RBD pulldown, lysates were subsequently thawed (at RT) and adjusted to 1 mg/mL with lysis/binding/wash buffer (0.5 mL volume). Equal amounts of lysate were then added to 0.5 mL lysis buffer containing RAF-RBD (1 mL total volume). Lysates were vortexed, incubated for 10 min on ice and subsequently pre-cleared at 14,000 rpm for 5 min at 4° C. 90% of the pre-cleared lysates were subsequently added to pre-washed glutathione agarose beads from Active Ras Detection kit (Cell signaling Technology, #8821) for 1 hour at 4 °C under constant rocking. The beads were subsequently pelleted, washed 3 times with lysis/binding/wash buffer, and eluted for western blotting with 50 μL of 1×SDS-PAGE sample buffer. Level of GTP-bound RAS was determined by western blot.
Western blot protocol: Equal volumes of eluate (25 μL) were separated by 16% SDS-PAGE and transferred to nitrocellulose membranes (Invitrogen by Thermo Fisher Scientific). The membrane was stained with Ponceau S Stain (Boston BioProducts) to verify uniform protein loading. Membranes were blocked with 5% BSA in TBST and then incubated overnight at 4° C. with anti-RAS mouse monoclonal antibody from the Active Ras Detection kit (Cell signaling Technology, #8821), followed by HRP-conjugated secondary antibody (Jackson Immunoresearch, West Grove, PA). Membranes were incubated in Amersham ECL Prime Western Blotting Detection Reagent (GE Healthcare) and bands were visualized using the ChemiDoc MP imaging system (Bio-Rad).

[2] = system: GTP-bound RAS; assay: Cell-based Ras-GTP pulldown assay, NCI H1975; details: Homo sapiens
Experimental: as §1, §2
(§3) Western blot protocol: Equal volumes of eluate (25 μL) were separated by 16% SDS-PAGE and transferred to nitrocellulose membranes (Invitrogen by Thermo Fisher Scientific). The membrane was stained with Ponceau S Stain (Boston BioProducts) to verify uniform protein loading. […]

[3] = system: GTP-bound RAS; assay: Cell-based Ras-GTP pulldown assay, PANC-1; details: Homo sapiens
Experimental: as §1, §2, §3

[4] = system: MEK phosphorylation; assay: Western MEK cell-based phosphorylation assay, MIA PaCa-2; details: Homo sapiens
Experimental: as §1, with “NCI-H1975” for “NCI-H1975,”, “Panc-1” for “Panc-1,”, “MIA-PaCa-2” for “MIA-PaCa-2,”
(§4) Method: Cells were plated at 350000 cells/well density in a 12-well plate, allowed 3 hours to adhere to the plate, then starved in the appropriate medium in the presence of 0.5% FBS overnight. The small molecules to be tested were added to the cells in the final concentration of 10 μM in the presence of 0.3% DMSO for 6 hours incubation at 37° C. […] Protein concentration was assessed by BCA protein assay (Thermo Scientific). Phosphorylation level of MEK was determined by western blot.
(§5) Western blot protocol: Equal amounts of protein (15-50 μg) were separated by SDS-PAGE and transferred to nitrocellulose membranes (Invitrogen by Thermo Fisher Scientific). […] Membranes were blocked with 10% milk and phosphorylation levels of MEK were assessed by incubating overnight at 4° C. with anti-phospho-MEK 1/2 (Ser217/Ser221) antibody (Cell Signaling) followed by HRP-conjugated secondary antibody (Jackson Immunoresearch, West Grove, PA). […]

[5] = system: MEK phosphorylation; assay: Western MEK cell-based phosphorylation assay, NCI H1975; details: Homo sapiens
Experimental: as §1, with “NCI-H1975” for “NCI-H1975,”, “Panc-1” for “Panc-1,”, “MIA-PaCa-2” for “MIA-PaCa-2,”
as §4, §5

[6] = system: MEK phosphorylation; assay: Western MEK cell-based phosphorylation assay, PANC-1; details: Homo sapiens
Experimental: as §1, with “NCI-H1975” for “NCI-H1975,”, “Panc-1” for “Panc-1,”, “MIA-PaCa-2” for “MIA-PaCa-2,”
Method: Cells were plated at 350000 cells/well density in a 12-well plate, allowed 3 hours to adhere to the plate, then starved in the appropriate medium in the presence of 0.5% FBS overnight. The small molecules to be tested were added to the cells in the final concentration of 10 μM in the presence of 0.3% DMSO for 6 hours incubation at 37° C. For IC50 value determination, serial dilutions of compounds were added to cells under the same conditions. Next, cells were stimulated with 1.5 ng/ml EGF for 15 minutes then cells were lysed with lysis buffer containing 1% Triton X-100, EDTA, and Halt™ Protease & Phosphatase Inhibitor Cocktail (Thermo Scientific). Protein concentration was assessed by BCA protein assay (Thermo Scientific). Phosphorylation level of MEK was determined by western blot.
Western blot protocol: Equal amounts of protein (15-50 μg) were separated by SDS-PAGE and transferred to nitrocellulose membranes (Invitrogen by Thermo Fisher Scientific). The membrane was stained with Ponceau S Stain (Boston BioProducts) to verify uniform protein loading. Membranes were blocked with 10% milk and phosphorylation levels of MEK were assessed by incubating overnight at 4° C. with anti-phospho-MEK 1/2 (Ser217/Ser221) antibody (Cell Signaling) followed by HRP-conjugated secondary antibody (Jackson Immunoresearch, West Grove, PA). Bands were incubated in Amersham ECL Prime Western Blotting Detection Reagent (GE Healthcare) and visualized using the ChemiDoc MP imaging system (Bio-Rad).

[7] = target: GTP binding domain of Ras; details: literature (Feuerstein 1987; John 1990); cited from earlier work
[8] = 10 μM, 6 hours, EGF stimulation

Structure (SMILES): COCCNc1nc(-c2nccn2C)nc2sc(-c3cccc(OC)c3Cl)c(-c3ccccc3)c12 [drawing 1076]
inhibition at 10 µM [1, 8]: 76 to 100%
inhibition at 10 µM [2, 8]: 76 to 100%
inhibition at 10 µM [3, 8]: 76 to 100%

Structure (SMILES): COc1cccc(-c2sc3nc(-c4nccn4C)nc(N4CCC(OC)C4)c3c2-c2ccccc2)c1F (centres unmarked) [drawing 477]
IC50 [6]: > 1000 nM

Structure (SMILES): Nc1nc2c(ncn2[C@@H]2O[C@H](COP(=O)(O)OP(=O)(O)O)[C@@H](O)[C@H]2O)c(=O)[nH]1 [GDP]
affinity for the GTP binding domain of Ras [7]: single to double digit picomolar

Continued, in another order:

IC50 [1]: 750 to 1000 nM
IC50 [3]: 750 to 1000 nM
Structure (SMILES): COCCNc1nc(-c2nccn2C)nc2sc(-c3cccc(OC)c3Cl)c(-c3ccccc3)c12 [drawing 1079]
IC50 [2]: > 1000 nM

IC50 [4]: 750 to 1000 nM
IC50 [6]: 750 to 1000 nM
Structure (SMILES): COCCNc1nc(-c2nccn2C)nc2sc(-c3cccc(OC)c3Cl)c(-c3ccccc3)c12 [drawing 476]
IC50 [5]: > 1000 nM
